Molecular target: T1, CitT (Escherichia coli, UniProt P0AE74)
T1 construct: CitT co-expressed with Malon in E. coli BL21 cells
T1 sequence (P0AE74 1-487): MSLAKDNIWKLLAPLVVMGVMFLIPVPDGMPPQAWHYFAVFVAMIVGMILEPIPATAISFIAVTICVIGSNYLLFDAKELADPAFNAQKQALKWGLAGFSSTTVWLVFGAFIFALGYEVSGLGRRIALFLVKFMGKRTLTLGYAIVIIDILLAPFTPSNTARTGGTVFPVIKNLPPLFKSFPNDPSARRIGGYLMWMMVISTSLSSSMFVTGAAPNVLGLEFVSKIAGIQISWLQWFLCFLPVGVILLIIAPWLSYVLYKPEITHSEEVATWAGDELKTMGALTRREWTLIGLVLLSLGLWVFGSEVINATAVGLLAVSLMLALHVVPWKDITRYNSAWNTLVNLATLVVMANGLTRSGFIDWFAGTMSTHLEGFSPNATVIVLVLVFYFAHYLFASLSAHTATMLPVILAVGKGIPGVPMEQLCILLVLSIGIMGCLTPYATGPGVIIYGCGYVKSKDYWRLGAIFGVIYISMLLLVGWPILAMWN
Assay: CitT-dependent malate uptake in E. coli, Malon fluorescence by flow cytometry
Type: cell-based

O=C(O)C[C@H](O)C(=O)O [malate]
CitT-dependent malate uptake in E. coli, Malon fluorescence by flow cytometry: Without the CitT transporter, little to no change in fluorescence was observed upon addition of malate
